Data: EPA's ToxRefDB 2

Assays:
dog [1] = conditions: Subchronic oral toxicity in nonrodent, beagle, Capsule, dose end: 13 week, group: systemic
rat [2] = conditions: Combined chronic toxicity/carcinogenicity, sprague dawley, Oral, [Not Specified], dose end: 104 week, group: systemic
mouse [3] = conditions: Carcinogenicity, cd1, Oral, Feed, dose end: 80 week, group: systemic
rat [4] = conditions: Multigenerational reproductive toxicity study, sprague dawley, Oral, Feed, dose end: 2 generation
rat [5] = conditions: Subchronic oral toxicity in rodents, sprague dawley, Feed, dose end: 13 week, group: systemic
rat [6] = conditions: Prenatal developmental toxicity study, sprague dawley, Oral, Gavage/Intubation, dose end: 16 GD
dog [7] = conditions: Chronic toxicity, beagle, Oral, Capsule, dose end: 52 week, group: systemic
rat [8] = conditions: Subchronic oral toxicity in rodents, sprague dawley, Feed, dose end: 13 week, group: systemic; remark: listed apart in the source
mouse [9] = conditions: Subchronic oral toxicity in rodents, b6c3f1, Feed, dose end: 90 day, group: systemic
dog [10] = conditions: Sub-acute repeat dose toxicity, beagle, Oral, Feed, group: systemic
[11] = systemic / in life observation / body weight / body weight gain + systemic / urinalysis / porphyrins / porphyrins
[12] = systemic / in life observation / body weight / body weight gain + systemic / urinalysis / porphyrins / porphyrins + systemic / hematology / …
[13] = systemic / pathology microscopic / liver / discolored
[14] = systemic / pathology microscopic / liver / discolored + systemic / clinical chemistry / cholesterol / cholesterol + systemic / in life …
[15] = systemic / in life observation / body weight / body weight gain + systemic / pathology microscopic / liver / inflammation
[16] = group: offspring, systemic / in life observation / body weight / offspring (pup) weight
[17] = group: parental, systemic / hematology / mean corpuscular (cell) volume (mcv) / mean corpuscular (cell) volume (mcv) + systemic / hematology / mean …
[18] = systemic / clinical chemistry / alanine aminotransferase (alt/sgpt) / alanine aminotransferase (alt/sgpt) + systemic / clinical chemistry / …
[19] = group: developmental, developmental / developmental malformation / bone / thickened + developmental / developmental malformation / bone / wavy
[20] = group: maternal, systemic / in life observation / clinical signs / abdominogenital staining + systemic / in life observation / clinical signs / discharge on …
[21] = systemic / urinalysis / porphyrins / porphyrins
[22] = systemic / urinalysis / porphyrins / porphyrins + systemic / organ weight / liver / absolute
[23] = systemic / in life observation / body weight / body weight + systemic / in life observation / food consumption / food consumption + systemic…

CCOC(=O)C(Cl)Cc1cc(-n2nc(C)n(C(F)F)c2=O)c(F)cc1Cl (stereo not drawn) [Carfentrazone-ethyl]
LEL (dog [1]; [11]): 150 mg/kg/day
LOAEL (dog [1]; [11]): 150 mg/kg/day
NEL (dog [1]; [12]): 50 mg/kg/day
NOAEL (dog [1]; [12]): 50 mg/kg/day
LEL (rat [2]; [13]): 12 mg/kg/day
LOAEL (rat [2]; [13]): 12 mg/kg/day
NEL (rat [2]; [14]): 3 mg/kg/day
NOAEL (rat [2]; [14]): 3 mg/kg/day
LEL (mouse [3]; [15]): 10 mg/kg/day
NEL (mouse [3]; [15]): < 10 mg/kg/day
NOAEL (mouse [3]; systemic / in life observation / body weight / body weight gain + systemic / pathology microscopic / liver / inflammation + systemic / in …): 10 mg/kg/day
LOAEL (mouse [3]; systemic / pathology microscopic / liver / inflammation + systemic / in life observation / mortality / mortality + systemic / pathology …): 110 mg/kg/day
LEL (rat [4]; [16]): 343 mg/kg/day
LOAEL (rat [4]; [16]): 343 mg/kg/day
NEL (rat [4]; [16]): 127 mg/kg/day
NOAEL (rat [4]; [16]): 127 mg/kg/day
LEL (rat [4]; [17]): 343 mg/kg/day
LOAEL (rat [4]; [17]): 343 mg/kg/day
NEL (rat [4]; [17]): 127 mg/kg/day
NOAEL (rat [4]; [17]): 127 mg/kg/day
LOAEL (rat [5]; [18]): 470 mg/kg/day
NEL (rat [5]; [18]): 58 mg/kg/day
NOAEL (rat [5]; [18]): 226 mg/kg/day
LEL (rat [5]; systemic / in life observation / clinical signs / urine, discoloration + systemic / in life observation / food consumption / food …): 226 mg/kg/day
LEL (rat [6]; [19]): 1250 mg/kg/day
LOAEL (rat [6]; [19]): 1250 mg/kg/day
NEL (rat [6]; [19]): 600 mg/kg/day
NOAEL (rat [6]; [19]): 600 mg/kg/day
LEL (rat [6]; [20]): 600 mg/kg/day
LOAEL (rat [6]; [20]): 600 mg/kg/day
NEL (rat [6]; [20]): 100 mg/kg/day
NOAEL (rat [6]; [20]): 100 mg/kg/day
LEL (dog [7]; [21]): 150 mg/kg/day
LOAEL (dog [7]; [21]): 150 mg/kg/day
NEL (dog [7]; [22]): 50 mg/kg/day
NOAEL (dog [7]; [22]): 50 mg/kg/day

CC(C)[C@H](C(=O)O[C@H](C#N)c1cccc(Oc2ccccc2)c1)c1ccc(Cl)cc1 [Esfenvalerate]
LOAEL (rat [8]; systemic / in life observation / clinical signs / jerking movements): 7.5 mg/kg/day
NOAEL (rat [8]; systemic / in life observation / clinical signs / jerking movements + systemic / in life observation / body weight / body weight gain + …): 2.5 mg/kg/day
LEL (rat [8]; systemic / in life observation / clinical signs / jerking movements + systemic / organ weight / kidney / relative to body weight): 7.5 mg/kg/day
NEL (rat [8]; systemic / organ weight / kidney / relative to body weight + systemic / hematology / erythrocyte (rbc) count differential / erythrocyte (rbc…): 2.5 mg/kg/day
LOAEL (mouse [9]; [18]): 106 mg/kg/day
NEL (mouse [9]; [18]): 10.5 mg/kg/day
NOAEL (mouse [9]; [18]): 30.5 mg/kg/day
LEL (mouse [9]; systemic / clinical chemistry / glucose / glucose + systemic / clinical chemistry / triglycerides / triglycerides): 30.5 mg/kg/day
LOAEL (dog [10]; systemic / in life observation / body weight / body weight + systemic / in life observation / clinical signs / ataxia): 7.5 mg/kg/day
LEL (dog [10]; systemic / in life observation / body weight / body weight + systemic / in life observation / clinical signs / ataxia + systemic / in life …): 7.5 mg/kg/day
NEL (dog [10]; [23]): 2.5 mg/kg/day
NOAEL (dog [10]; [23]): 2.5 mg/kg/day
